Measured values from US9381683B2, “Films and methods of manufacture” (priority 2011, dated 2016).

Legend:
[1] = Water solubility; assay type: physicochemical
Description: In vitro testing has shown that due to its poor water solubility, triclosan is released from these films only slowly over […] period, with minimal initial burst release.

[2] = Stability of gentamicin sulfate to manufacturing conditions (heat, organic solvents); assay type: physicochemical
Description: In one embodiment, the drug selected must be stable during the manufacturing processes required to fabricate the implant.

| Molecule | water solubility [1] | thermal stability (thermally stable above) [2] | stability to organic solvents ([2]; organic solvents including DMSO) |
| --- | --- | --- | --- |
| Oc1cc(Cl)ccc1Oc1ccc(Cl)cc1Cl [triclosan, 2,4,4′-trichloro-2′-hydroxydiphenyl ether] | poor |  |  |
| Gentamicin sulfate |  | above 100 °C | stable |
